A short description of series [1]: Induction of dimyristoyl phosphatidylglycerol membrane lysis assessed as calcein leakage at 250 uM to 1 mM by spectrofluorometric analysis. Type of series: physicochemical.
In series [2] the test system is Escherichia coli. Kind of series: Antimicrobial activity against Escherichia coli up to 2 mM. Format: functional, organism-based.
Series [3] in a line: Induction of dimyristoyl phosphatidylethanolamine membrane lysis assessed as calcein leakage at 250 to 500 uM by spectrofluorometric analysis. Type of series: physicochemical.
The nature of series [4]: Induction of dimyristoyl phosphatidylglycerol membrane lysis assessed as calcein leakage by spectrofluorometric analysis. Format: physicochemical.
A short description of series [5]: Destabilization of dimyristoyl phosphatidylethanolamine membrane. Format: physicochemical.
Series [6] concerns Staphylococcus aureus. Kind of series: Antimicrobial activity against Staphylococcus aureus up to 2 mM. Type of series: functional, organism-based.
The nature of series [7]: Destabilization of dimyristoyl phosphatidylglycerol membrane. Type of series: physicochemical.
Series [8] can be described thus: Induction of dimyristoyl phosphatidylethanolamine membrane lysis assessed as calcein leakage at 1 mM by spectrofluorometric analysis. Type of series: physicochemical. As to conditions: 1000 µM.
Series [9] relates to Escherichia coli. The experiment in a line: Antimicrobial activity against Escherichia coli. Type of series: functional.
Series [10] is described as follows: Induction of dimyristoyl phosphatidylglycerol membrane lysis assessed as calcein leakage at 1 mM by spectrofluorometric analysis relative to control. Type of series: physicochemical. As to conditions: 1000 µM.
In series [11] the test system is Staphylococcus aureus. Kind of series: Antimicrobial activity against Staphylococcus aureus. Type of series: functional.

Our source for the Activity and MIC values is ChEMBL document CHEMBL2375328, “Synthetic oligoureas of metaphenylenediamine mimic host defence peptides in their antimicrobial behaviour” (Bioorg Med Chem Lett, 2013).

In brackets after ≈: the same amount, converted by molar mass. Activity calls are given as the source filed them. No cut-off for these calls is given here.

For `CC(C)c1ccccc1N(C)C(=O)N(C)c1ccccc1C(C)C`, the Activity result in series [1] is recorded as “Active”; in [3] it was “Not Active”; in series [4] it was “Dose-dependent effect”; in series [5], “Not Active”; in series [7], “Active”; in [8], “Active”. For the same compound, the result in [2] and in series [6] was inactive.

As for `CC(C)c1ccccc1N(C)C(=O)N(C)c1cccc(N(C)C(=O)N(C)c2cccc(N(C)C(=O)N(C)c3cccc(N(C)C(=O)N(C)c4cccc(N(C)C(=O)N(C)c5cccc(N(C)C(=O)N(C)c6cccc(N(C)C(=O)N(C)c7ccccc7C(C)C)c6)c5)c4)c3)c2)c1`, the Activity result is “Active” in series [1]; “Not Active” in series [3]; “Dose-dependent effect” in [4]; “Active” in [5]; 69% in series [10]; “Active” in [8]. The MIC in [9] and in series [11] was 1000 µM (≈ 1300 µg/mL) throughout.

`CC(C)c1ccccc1N(C)C(=O)N(C)c1cccc(N(C)C(=O)N(C)c2cccc(N(C)C(=O)N(C)c3cccc(N(C)C(=O)N(C)c4ccccc4C(C)C)c3)c2)c1`: the Activity entry in [1] was “Active”; in series [3], “Not Active”; in [4], “Dose-dependent effect”; in series [5], “Active”; in series [10], 61%; in series [8] it was “Active”. For the same compound, the MIC in series [9] and in series [11] was 1000 µM (≈ 811 µg/mL) in each case.
